Where a chain is given by its changes, count along the chain named.
Experiments:
[1] = target: T1, human NNMT (Homo sapiens, UniProt P40261); experiment: Fluorescence-based NNMT enzymatic assay (human enzyme); assay type: biochemical; conditions: for IC50: read-out: hNNMT IC50
T1 sequence (P40261 1-264): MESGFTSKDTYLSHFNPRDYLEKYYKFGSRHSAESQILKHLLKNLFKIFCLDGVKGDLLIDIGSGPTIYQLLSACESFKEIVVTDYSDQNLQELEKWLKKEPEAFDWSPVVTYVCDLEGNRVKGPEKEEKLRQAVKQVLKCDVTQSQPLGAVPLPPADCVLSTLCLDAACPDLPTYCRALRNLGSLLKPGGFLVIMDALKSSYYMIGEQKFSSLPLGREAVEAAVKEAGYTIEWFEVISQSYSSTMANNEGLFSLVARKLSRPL
Protocol: (§1) Experimental Procedures S2: Fluorescence-based NNMT enzymatic assay
(§2) NNMT activity was measured by fluorescence based assay. The product MNA formed in the reaction reacts with acetophenone in the presence of KOH and formic acid and forms a fluorescent product 2, 7- naphthyridine. The fluorescence intensity measured with excitation at 375nm and emission at 430nm. Inhibitors were screened using human, mouse and monkey NNMT enzymes. Different concentrations of inhibitors were pre-incubated along with 5ng/well of human NNMT enzyme and 3.42ng/well of mouse NNMT enzyme for 30 minutes at room temperature. Reaction was initiated by addition of SAM and nicotinamide mixture (7µM, 20µM, 8µM SAM and 6µM, 20µM, 9µM nicotinamide for human, mouse and monkey NNMT assays respectively) and incubated for 60 minutes at 37°C. The final assay reaction mixture contained a buffer of 100mM Tris Hcl pH 7.5, 0.04% BSA, 2mM Dithiothreitol and 1% DMSO. The reaction was terminated by addition of Ethanol: Acetophenone mix (75% ethanol: 25% Acetophenone) and 5M potassium Hydroxide prepared with 50% Ethanol. The reaction was incubated for 15 minutes followed by addition of 100µl of 60% formic acid and further incubation for 60 minutes at room temperature. A fluorescent product 2, 7- naphthyridine was measured in a Tecan reader with excitation at 375nm and emission at 430nm. The IC50 values were determined by fitting the inhibition curves (percent inhibition versus inhibitor concentration) using a four parametric sigmoidal dose response in graph pad prism. […]

[2] = target: T2, mouse NNMT (Mus musculus, UniProt O55239); experiment: Fluorescence-based NNMT enzymatic assay (mouse enzyme); assay type: biochemical; conditions: read-out: mNNMT IC50
T2 sequence (O55239 1-264): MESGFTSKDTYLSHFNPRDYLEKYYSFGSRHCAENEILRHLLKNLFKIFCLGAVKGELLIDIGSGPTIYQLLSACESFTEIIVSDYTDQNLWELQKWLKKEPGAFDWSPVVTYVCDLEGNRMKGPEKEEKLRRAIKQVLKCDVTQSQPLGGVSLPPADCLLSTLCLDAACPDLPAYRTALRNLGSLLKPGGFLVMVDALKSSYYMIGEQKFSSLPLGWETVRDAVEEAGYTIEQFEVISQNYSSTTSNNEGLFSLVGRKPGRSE
Protocol: as §1, §2

[3] = target: T3, human NNMT (Homo sapiens, UniProt P40261, E101A/E103A/K100A); experiment: Thermal shift (DSF) measurement of NNMT stabilisation; assay type: binding; conditions: together with cofactor (reaction product) SAH
T3 construct: His-tag; thrombin protease site; made in house
T3 sequence (P40261 1-264 K100A/E101A/E103A): T1 sequence (P40261 1-264) with K100A, E101A, E103A

[4] = target: CYP3A4 (Homo sapiens, UniProt P08684); experiment: CYP3A4 inhibition; assay type: in vitro ADME
[5] = Metabolic stability in liver microsomes (species not specified); assay type: in vitro ADME
Protocol: Experimental Procedures S3: Metabolic stability in human and mouse liver microsomes
These profiling studies were carried out as described in Mullangi R. et. al. Preclinical assessment of
ulixertinib, a novel ERK1/2 inhibitor, ADMET & DMPK, 2017, 212-223;

CYP3A4, sequence (P08684 whole entry, species assumed): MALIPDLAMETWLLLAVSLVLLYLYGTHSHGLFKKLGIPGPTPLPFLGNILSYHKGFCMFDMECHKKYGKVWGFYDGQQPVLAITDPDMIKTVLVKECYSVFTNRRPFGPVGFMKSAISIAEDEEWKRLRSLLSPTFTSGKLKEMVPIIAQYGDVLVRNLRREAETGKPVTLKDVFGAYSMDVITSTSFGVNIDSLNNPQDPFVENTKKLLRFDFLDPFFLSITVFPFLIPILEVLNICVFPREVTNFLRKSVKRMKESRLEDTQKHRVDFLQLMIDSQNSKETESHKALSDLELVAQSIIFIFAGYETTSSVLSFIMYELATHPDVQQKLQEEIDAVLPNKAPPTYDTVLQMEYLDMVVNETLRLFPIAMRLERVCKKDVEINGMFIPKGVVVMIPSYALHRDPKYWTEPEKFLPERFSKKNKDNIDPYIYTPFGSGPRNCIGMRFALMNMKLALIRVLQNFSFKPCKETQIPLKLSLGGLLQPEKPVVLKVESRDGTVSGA

| SMILES | mode of inhibition ([1]; competition with substrates nicotinamide / SAM) | IC50 [1] [nM] | IC50 [2] [nM] | stabilization in DSF experiments, in words [3] | hNNMT potency, in words [1] | CYP3A4 inhibition liabilities [4] | metabolic stability, in words [5] |
| --- | --- | --- | --- | --- | --- | --- | --- |
| N=c1sc2cccc3c2n1CCC3 [Compound 2] | competitive inhibitors either of nicotinamide alone | 1300 | 2300 | strong additive stabilization |  |  |  |
| CN1Cc2cccc3c2N(CCC3)C1=N [Compound 4] |  | 70 | 100 |  | two-digit nano-molar potency | no CYP3A4 inhibition liabilities were detected | in an acceptable range |
